{
  "source": "patent US4663458A",
  "about": "“Water soluble salt composition of m-AMSA” (Bristol-Myers Company, priority 1985, dated 1987)",
  "key": {"[1]": {"assay": "Aqueous solubility of m-AMSA base and salts"}, "[2]": {"assay": "Storage stability / precipitation of m-AMSA lactate aqueous solutions"}, "[3]": {"tested_on": "animal tumor systems", "details": "Cain et al., Europ. J. Cancer 10:539-549 (1974); cited from earlier work"}, "[4]": {"details": "prior art; cited from earlier work"}},
  "note": "Counter-ions that a name gives are not always drawn.",
  "data": [
    {"smiles": "COc1cc(NS(C)(=O)=O)ccc1Nc1c2ccccc2nc2ccccc12", "note": "[m-AMSA L(+)-lactate monohydrate salt]", "values": [
      {"measurement": "reconstitution rates", "setting": "[1]", "result": "excellent"},
      {"measurement": "solubility", "setting": "[1]; water", "result": "~2500", "unit": "µg/mL"},
      {"measurement": "stability", "setting": "[2]; for use as an intravenous drug", "result": "the stability necessary for use as an intravenous drug"}
    ]},
    {"smiles": "COc1cc(NS(C)(=O)=O)ccc1Nc1c2ccccc2nc2ccccc12", "note": "[m-AMSA, 4'9-(acridinylamino) methanesulfon-m-anisidide]", "values": [
      {"measurement": "antitumor activity", "setting": "[3]", "result": "significant antitumor activity"},
      {"measurement": "solubility in water", "setting": "[4]", "result": "very limited solubility in water"}
    ]},
    {"smiles": "COc1cc(NS(C)(=O)=O)ccc1Nc1c2ccccc2nc2ccccc12", "note": "[monohydrochloride]", "values": [
      {"measurement": "solubility in water", "setting": "[4]", "result": "insufficiently water-soluble"}
    ]},
    {"smiles": "COc1cc(NS(C)(=O)=O)ccc1Nc1c2ccccc2nc2ccccc12", "note": "[monomethanesulfonate]", "values": [
      {"measurement": "solubility in water", "setting": "[4]", "result": "insufficiently water-soluble"}
    ]},
    {"smiles": "COc1cc(NS(C)(=O)=O)ccc1Nc1c2ccccc2nc2ccccc12", "note": "[m-AMSA lactate salts]", "values": [
      {"measurement": "precipitation under extended storage", "setting": "[2]; concentrations as high as 5 mg/ml, extended storage at 24° C.", "result": "can result in precipitates"}
    ]}
  ]
}
